Measurements published in patent publication US5338733A, “Isoxazolidinyl carbapenem derivative” (Shionogi Seiyaku Kabushiki Kaisha, priority 1992, dated 1994).
In brackets after ≈: the same amount, converted by molar mass. Counter-ions that a name gives are not always drawn. Like-named read-outs stand apart in the source and are kept apart here.

Experiments:
[1] = system: Staphylococcus aureus 209P; experiment: MIC, Staphylococcus aureus 209P; assay type: cell-based; conditions: read-out: MIC (Minimal Inhibitory Concentration)
Description: (§1) The carbapenem compounds obtained in Examples 3, 5 and 8 were evaluated for antimicrobial activity, the integrated value of a concentration in blood (Area Under the Curve: AUC), recovery from urine and decomposition by human kidney dehydropeptidase-1 by using imipenem, meropenem and cephalosporin derivatives (A) and (B) as controls.
(§2) 1) MIC (Minimal Inhibitory Concentration) (γ/ml):
(§3) Antimicrobial activity was evaluated by using MIC.

in vitro = in vitro ADME, human; conditions: human, kidney dehydropeptidase-1
Description: as §1

[2] = system: human kidney dehydropeptidase-1; experiment: in vitro; assay type: in vitro ADME
Description: as §1

in vivo [3] = conditions: monkey, iv
in vivo [4] = conditions: mouse, iv
Description: as §1
2) Concentration in Blood (γ/ml):
Each compound was intravenously injected into a mouse, and the concentration in the blood 15 minutes after the injection was measured.
3) Recovery from Urine (%):
Each compound was intravenously injected into a mouse and a monkey, and the content in the urine 24 hours after the injection was measured. A rate of recovery was obtained from the content.

Entercoccus SR1004 = experiment: MIC, Entercoccus SR1004; assay type: cell-based; conditions: read-out: MIC (Minimal Inhibitory Concentration)
Description: as §1, §2, §3

[5] = system: Pseudomonas aeruginosa SR1012; experiment: MIC, Pseudomonas aeruginosa SR1012; assay type: cell-based
Description: as §1, §2, §3

[6] = system: Gram-positive bacteria and Gram-negative bacteria; experiment: Antimicrobial activity against Gram-positive and Gram-negative bacteria (overall); assay type: cell-based; conditions: as compared with imipenem, meropenem and cephalosporin derivatives (A) and (B); in words
Description: as §1, §2, §3

[7] = Pseudomonas aeruginosa SR1012, read-out: MIC (Minimal Inhibitory Concentration)

SMILES	MIC ([1]; Staphylococcus aureus 209P) [µg/mL]	metabolised (in vitro) [%]	hydrolysis rate in the body [2]	AUC (in vivo [3]) [ng·h/mL]	AUC (in vivo [4]) [ng·h/mL]	concentration at 0.25 h (in vivo [4]) [ng/mL]	MIC (Entercoccus SR1004; Entercoccus SR1004) [µg/mL]	MIC [5, 7] [µg/mL]	antimicrobial activity against Gram-positive bacteria and Gram-negative bacteria [6]	MIC ([1]; Staphylococcus aureus, 209P) [µg/mL]	MIC (Entercoccus SR1004) [µg/mL]	MIC ([5]; Pseudomonas aeruginosa, SR1012, read-out: MIC (Minimal Inhibitory Concentration)) [µg/mL]
CN1CCC(C2=C(C(=O)O)N3C(=O)C(NC(=O)C(=NO)c4csc(N)n4)C3SC2)O1 (stereo not drawn) [Cephalosporin (A)]	0.78 (≈ 1.72 µM)	–	–	–	–	–	–	–	–	–	–	–
C[N+]1(C)CCC(C2=C(C(=O)[O-])N3C(=O)C(NC(=O)C(=NO)c4csc(N)n4)C3SC2)O1 (stereo not drawn) [Cephalosporin (B)]	0.2 (≈ 0.427 µM)	–	–	–	–	–	–	–	–	–	–	–
C[C@H]1C([C@H]2CC[N+](C)(C)O2)=C(C(=O)[O-])N2C(=O)[C@H]([C@@H](C)O)C12 (stereo partly drawn) [Example 3, (1S,6S)-6-((R)-1-hydroxyethyl)-2-((5R)-2,2-dimethylisoxazolidinio-5-yl)-1-methyl-1-carba-2-penem-3-carboxylate]	0.0125 (≈ 0.0403 µM)	97	low hydrolysis rate	35200	19000	36300	0.78 (≈ 2.51 µM)	0.78 (≈ 2.51 µM)	excellent antimicrobial activity	–	–	–
C[C@H]1C([C@@H]2CC[N+](C)(C)O2)=C(C(=O)[O-])N2C(=O)[C@H]([C@@H](C)O)C12 (stereo partly drawn) [Example 5, (1S,6S)-6-((R)-1-hydroxyethyl)-2-((5S)-2,2-dimethylisoxazolidinio-5-yl)-1-methyl-1-carba-2-penem-3-carboxylate]	0.0125 (≈ 0.0403 µM)	–	low hydrolysis rate	–	–	–	0.78 (≈ 2.51 µM)	1.56 (≈ 5.03 µM)	excellent antimicrobial activity	–	–	–
C[C@H]1C([C@@H]2CCN(C)O2)=C(C(=O)O)N2C(=O)[C@H]([C@@H](C)O)C12 (stereo partly drawn) [Example 8, sodium (1S,6S)-6-((R)-l-hydroxyethyl)-1-methyl-2-((5S)-2-methylisoxazolidine-5-yl)-1-carba-2-penem-3-carboxylate salt]	0.1	–	low hydrolysis rate	–	–	–	–	–	excellent antimicrobial activity	–	–	–
C[C@@H](O)[C@H]1C(=O)N2C(C(=O)O)=C(SCCN=CN)C[C@H]12 [Imipenen, imipenem]	–	73	–	13300	8800	20600	–	–	–	0.0125 (≈ 0.0418 µM)	1.56 (≈ 5.21 µM)	1.56 (≈ 5.21 µM)
C[C@@H](O)[C@H]1C(=O)N2C(C(=O)O)=C(S[C@@H]3CN[C@H](C(=O)N(C)C)C3)[C@H](C)[C@H]12 [Meropenen, meropenem]	0.1 (≈ 0.261 µM)	87	–	17200	5200	13700	6.25 (≈ 16.3 µM)	0.78 (≈ 2.03 µM)	–	–	–	–
